Measurements reported in patent publication US7700782B2, “Compounds 569” (AstraZeneca AB, priority 2007, dated 2010).
Structures can show the parent of a compound that is named as a salt.

Molecular target: T1, Adrenergic β2 (Homo sapiens, UniProt P07550)
T1 construct: Adherent H292 cells were removed from tissue culture flasks; endogenous in cells; host or cells: H292 cells
Experiment: Adrenergic β2 mediated cAMP production in H292 cells (AlphaScreen cAMP detection)
Type: cell-based
Conditions: Intrinsic Activity, fraction relative to the maximum activity determined for formoterol
Experimental: Adrenergic β2 Mediated cAMP Production
H292 cells were grown in 225 cm2 flasks incubator at 37° C., 5% CO2 in RPMI medium containing, 10% (v/v) FBS (foetal bovine serum) and 2 mM L-glutamine.
Adherent H292 cells were removed from tissue culture flasks by treatment with Accutase™ cell detachment solution for 15 minutes. Flasks were incubated for 15 minutes in a humidified incubator at 37° C., 5% CO2. Detached cells were re-suspended in RPMI media (containing 10% (v/v) FBS and 2 mM L-glutamine) at 0.05×10^6 cells per mL. 5000 cells in 100 μL were added to each well of a tissue-culture-treated 96-well plate and the cells incubated overnight in a humidified incubator at 37° C., 5% CO2. The culture media was removed and cells were washed twice with 100 μL assay buffer and replaced with 50 μL assay buffer (HBSS solution containing 10 mM HEPES pH 7.4 and 5 mM glucose). Cells were rested at room temperature for 20 minutes after which time 25 μL of rolipram (1.2 mM made up in assay buffer containing 2.4% (v/v) dimethylsulphoxide) was added. Cells were incubated with rolipram for 10 minutes after which time test compounds were added and the cells were incubated for 60 minutes at room temperature. The final rolipram concentration in the assay was 300 μM and final vehicle concentration was 1.6% (v/v) dimethylsulphoxide. The reaction was stopped by removing supernatants, washing once with 100 μL assay buffer and replacing with 50 μL lysis buffer. The cell monolayer was frozen at −80° C. for 30 minutes (or overnight).
The concentration of cAMP (cyclic adenosine monophosphate) in the cell lysate was determined using AlphaScreen™ methodology. The frozen cell plate was thawed for 20 minutes on a plate shaker then 10 μL of the cell lysate was transferred to a 96-well white plate. 40 μL of mixed AlphaScreen™ detection beads pre-incubated with biotinylated cAMP, was added to each well and the plate incubated at room temperature for 10 hours in the dark. The AlphaScreen™ signal was measured using an EnVision spectrophotometer (Perkin-Elmer Inc.) with the recommended manufacturer's settings. cAMP concentrations were determined by reference to a calibration curve determined in the same experiment using standard cAMP concentrations. Concentration response curves for agonists were constructed and data was fitted to a four parameter logistic equation to determine both the pEC50 and Intrinsic Activity. Intrinsic Activity was expressed as a fraction relative to the maximum activity determined for formoterol in each experiment.

T1 sequence (P07550 whole entry): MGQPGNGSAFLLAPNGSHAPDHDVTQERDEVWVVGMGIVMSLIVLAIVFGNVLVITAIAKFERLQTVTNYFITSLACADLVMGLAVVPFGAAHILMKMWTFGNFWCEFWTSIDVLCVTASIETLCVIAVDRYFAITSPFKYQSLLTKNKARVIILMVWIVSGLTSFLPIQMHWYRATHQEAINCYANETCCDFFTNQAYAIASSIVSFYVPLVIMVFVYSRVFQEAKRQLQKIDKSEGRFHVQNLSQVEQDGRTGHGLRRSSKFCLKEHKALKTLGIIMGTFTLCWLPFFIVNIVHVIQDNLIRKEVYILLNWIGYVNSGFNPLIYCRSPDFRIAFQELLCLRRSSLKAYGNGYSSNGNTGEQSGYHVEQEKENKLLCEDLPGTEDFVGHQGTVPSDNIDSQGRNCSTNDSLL

Row | SMILES | β2 Int Act
1 | CC(C)N(CCNCCc1ccc(O)c2[nH]c(=O)sc12)C(=O)CCNCCc1ccccc1 [Example 1, N-(2-{[2-(4-Hydroxy-2-oxo-2,3-dihydro-1,3-benzothiazol-7-yl)ethyl]amino}ethyl)-N-isopropyl-N^3-(2-phenylethyl)-β-alaninamide bis-trifluoroacetic acid salt] | 0.78
2 | CC(C)N(CCNCCc1ccc(O)c2[nH]c(=O)sc12)C(=O)CCNCCc1ccc(Cl)cc1 [Example 3, N^3-[2-(4-Chlorophenyl)ethyl]-N-(2-{[2-(4-hydroxy-2-oxo-2,3-dihydro-1,3-benzothiazol-7-yl)ethyl]amino}ethyl)-N-isopropyl-β-alaninamide bis-trifluoroacetic acid salt] | 0.34
3 | O=C(CCNCCc1ccccc1)N(CCNCCc1ccc(O)c2[nH]c(=O)sc12)C1CCC(F)(F)CC1 [Example 4, N-(4,4-Difluorocyclohexyl)-N-(2-{[2-(4-hydroxy-2-oxo-2,3-dihydro-1,3-benzothiazol-7-yl)ethyl]amino}ethyl)-N^3-(2-phenylethyl)-β-alaninamide bis-trifluoroacetic acid salt] | 0.79
4 | O=C(CCNCCc1ccccc1)N(CCNCCc1ccc(O)c2[nH]c(=O)sc12)C1CCCCC1 [Example 5, N-Cyclohexyl-N-(2-{[2-(4-hydroxy-2-oxo-2,3-dihydro-1,3-benzothiazol-7-yl)ethyl]amino}ethyl)-N^3-(2-phenylethyl)-β-alaninamide bis-trifluoroacetic acid salt] | 0.83
5 | CC(C)(C)CN(CCNCCc1ccc(O)c2[nH]c(=O)sc12)C(=O)CCNCCc1ccccc1 [Example 6, N-(2,2-Dimethylpropyl)-N-(2-{[2-(4-hydroxy-2-oxo-2,3-dihydro-1,3-benzothiazol-7-yl)ethyl]amino}ethyl)-N^3-(2-phenylethyl)-β-alaninamide bis-trifluoroacetic acid salt] | 0.89
6 | CC(C)(C)CN(CCNCCc1ccc(O)c2[nH]c(=O)sc12)C(=O)CCNCCc1cccc(Cl)c1 [Example 7, N^3-[2-(3-Chlorophenyl)ethyl]-N-(2,2-dimethylpropyl)-N-(2-{[2-(4-hydroxy-2-oxo-2,3-dihydro-1,3-benzothiazol-7-yl)ethyl]amino}ethyl)-β-alaninamide bis-trifluoroacetic acid salt] | 0.68
7 | CC(C)(C)CN(CCNCCc1ccc(O)c2[nH]c(=O)sc12)C(=O)CCNCCc1ccc(Cl)cc1 [Example 8, N^3-[2-(4-Chlorophenyl)ethyl]-N-(2,2-dimethylpropyl)-N-(2-{[2-(4-hydroxy-2-oxo-2,3-dihydro-1,3-benzothiazol-7-yl)ethyl]amino}ethyl)-β-alaninamide bis-trifluoroacetic acid salt] | 0.73
8 | CC(C)(C)CN(CCNCCc1ccc(O)c2[nH]c(=O)sc12)C(=O)CCNCCc1ccc(Cl)c(Cl)c1 [Example 9, N^3-[2-(3,4-Dichlorophenyl)ethyl]-N-(2,2-dimethylpropyl)-N-(2-{[2-(4-hydroxy-2-oxo-2,3-dihydro-1,3-benzothiazol-7-yl)ethyl]amino}ethyl)-β-alaninamide bis-trifluoroacetic acid salt] | 0.65
9 | Cc1cccc(CCNCCC(=O)N(CCNCCc2ccc(O)c3[nH]c(=O)sc23)CC(C)(C)C)c1 [Example 10, N-(2,2-Dimethylpropyl)-N-(2-{[2-(4-hydroxy-2-oxo-2,3-dihydro-1,3-benzothiazol-7-yl)ethyl]amino}ethyl)-N^3-[2-(3-methylphenyl)ethyl]-β-alaninamide bis-trifluoroacetic acid salt] | 0.69
10 | C[C@H](CNCCC(=O)N(CCNCCc1ccc(O)c2[nH]c(=O)sc12)CC(C)(C)C)c1ccccc1 [Example 11, N-(2,2-Dimethylpropyl)-N-(2-{[2-(4-hydroxy-2-oxo-2,3-dihydro-1,3-benzothiazol-7-yl)ethyl]amino}ethyl)-N^3-[(2S)-2-phenylpropyl]-β-alaninamide bis-trifluoroacetic acid salt] | 0.84
